# Literature values in patent publication US20240277615A1, “SELF-EMULSIFYING COMPOSITION, PRODUCTION METHODS AND USES THEREOF” (Universidade Da Beira Interior, priority 2021, published 2024).
Log P,plasma protein binding (plasma protein),SMILES
7,,CC(C)CCC[C@@H](C)[C@H]1CC[C@H]2[C@@H]3CC=C4C[C@@H](O)CC[C@]4(C)[C@H]3CC[C@]12C [cholesterol]
,94-98%,CCC(C)(C)C(=O)O[C@H]1C[C@@H](C)C=C2C=C[C@H](C)[C@H](CC[C@@H]3C[C@@H](O)CC(=O)O3)[C@H]21 [simvastatin]
